Test results: patent US7932281B2, “Amine-based compound and use thereof” (Kureha Corporation, priority 2004, dated 2011)

What was measured:
[1] = tested on: HIV-1IIIB infected MT-4 cells; assay: Anti-HIV activity, HIV-1IIIB infected MT-4 cells, MTT method (Test Example 1); type: cell-based; conditions: Human immunodeficiency virus 1, MT4, 120 h, concentration required for inhibition of cell disorder due to HIV infection by 50%, MOI 0.01, 5 days
Experimental: Immediately after infection, HIV-1IIIB infected MT-4 cells (3.0×10^4/well, MOI (Multiplicity of infection): 0.01) were added to a 96-well microtiter plate together with the test compounds having different concentrations. The cells were cultured in a carbon dioxide incubator at 37° C. for 5 days, and the number of living cells was measured in accordance with the MTT (tetrazolium) method ([…], et al., J. of Virol. Method, 20, 309-321 […]). The antiviral activity is represented by the concentration required for inhibition of cell disorder due to HIV infection by 50% (EC50: 50% Effective Concentration) (μM), and the results are shown in Table 2.

CXCR4 = molecular target: T1, CXCR4 (Homo sapiens, UniProt P61073); assay: Inhibition of 125I-SDF-1α binding to receptors CXCR4 on MT-4 cells (Test Example 2); conditions: binding-inhibition % at 0.01 μM, 2 hours under ice-cooling, read-out: Inhibition rate (%)
T1 construct: endogenous in cells; host or cells: MT-4 cells
T1 sequence (P61073 whole entry): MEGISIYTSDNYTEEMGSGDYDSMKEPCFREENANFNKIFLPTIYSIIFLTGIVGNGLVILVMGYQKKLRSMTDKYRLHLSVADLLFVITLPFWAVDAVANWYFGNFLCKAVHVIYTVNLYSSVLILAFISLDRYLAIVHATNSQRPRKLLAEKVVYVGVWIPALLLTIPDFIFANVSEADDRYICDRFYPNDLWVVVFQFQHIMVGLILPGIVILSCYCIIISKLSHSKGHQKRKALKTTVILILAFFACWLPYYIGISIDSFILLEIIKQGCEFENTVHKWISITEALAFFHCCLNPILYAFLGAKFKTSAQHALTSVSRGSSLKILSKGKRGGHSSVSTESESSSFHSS
Experimental: MT-4 cells (5×10^6/0.2 ml/well) were cultured on a 24-well microtiter plate. After the cells were incubated for 24 hours at 37° C. in a carbon dioxide gas incubator, a culture medium was replaced with a buffer solution (0.1% BSA-containing RPMI-1640). Together with a ligand ^125I-SDF-1α (specific activity: 2,200 Ci/mmol; available from Daiichi Pure Chemicals Co., Ltd. (Tokyo)), test materials with various concentrations were subjected to a binding reaction for 2 hours under ice-cooling. […] Then, a rate of inhibition of the binding between radioactive ligands and receptors CXCR4 by a test material was calculated (a binding-inhibition % at 0.01 μM).

SD mice = assay: Acute toxicity, single transvenous administration (Test Example 3); type: in vivo; conditions: 6-week-old male SD mice, 2.5 mg/kg transvenously once in physiological saline
Experimental: The aforementioned compound was examined for acute toxicity. Specifically, 6-week-old SD mice (male) were divided into several groups (2 to 3 mice in each group). Subsequently, each of the compounds of Examples was dissolved in a physiological saline solution, and the solution was transvenously administered to the mice (dose: 2.5 mg/kg) once. Then, the number of dead mice was counted.

| SMILES | EC50 [1] [nM] | inhibition at 0.01 µM (CXCR4) [%] | Dead mice/test mice (SD mice) |
| --- | --- | --- | --- |
| CCCN(CCC)CCCCN(C)C(=O)N(C)c1ccc(CN(Cc2ncc[nH]2)Cc2nccn2C)cc1 [Compound No. 27, 1-(4-dipropylamino-butyl)-3-(4-{[(1H-imidazol-2-ylmethyl)-(1-methyl-1H-imidazol-2-ylmethyl)-amino]-methyl}-phenyl)-1,3-dimethyl-urea] | 230 | 43.4 | 0/3 |
| CCCN(CCC)CCCCc1nc2ccc(CN(Cc3ncc[nH]3)Cc3nccn3C)cc2n1C(C)C [Compound No. 47, [4-(6-{[(1H-imidazol-2-ylmethyl)-(1-methyl-1H-imidazol-2-ylmethyl)-amino]-methyl}-1-isopropyl-1H-benzimidazol-2-yl)-butyl]-dipropyl-amine] | 2 | 86.2 | 0/3 |
| CCCN(CCC)CCCc1nc2ccc(CN(Cc3ncc[nH]3)Cc3nccn3C)cc2n1CCC [Compound No. 46, [3-(6-{[(1H-imidazol-2-ylmethyl)-(1-methyl-1H-imidazol-2-ylmethyl)-amino]-methyl}-1-propyl-1H-benzimidazol-2-yl)-propyl]-dipropyl-amine] | 17 | 74.6 | 0/3 |
| CCCN(CCC)CCCCN(CC(=O)OCC)Cc1ccc(CN(Cc2ncc[nH]2)Cc2ncc[nH]2)cc1 [Compound No. 97, [(4-[[bis-(1H-imidazol-2-ylmethyl)-amino]-methyl]-benzyl)-(4-dipropylamino-butyl)-amino]-acetic acid ethyl ester] | 1 | 85.6 | 0/3 |
| CCCN(CCC)CCCCN(CC)Cc1ccc(CN(Cc2ncc[nH]2)Cc2nccn2C)cc1 [Compound No. 23, N-ethyl-N-(4-{[(1H-imidazol-2-ylmethyl)-(1-methyl-1H-imidazol-2-ylmethyl)-amino]-methyl}-benzyl)-N′,N′-dipropyl-butane-1,4-diamine] | 3 | 78.2 | 0/3 |
| CCCN(CCC)CCCCN(C)Cc1ccc(CN(Cc2ncc[nH]2)Cc2nccn2C)cc1C(=O)O [Compound No. 122, 2-{[(4-dipropylamino-butyl)-methyl-amino]-methyl}-5-{[(1H-imidazol-2-ylmethyl)-(1-methyl-1H-imidazol-2-ylmethyl)-amino]-methyl}-benzoic acid] | 4 | 71.3 | – |
| CCCN(CCC)CCCCNC(=O)c1cn2cc(CN(Cc3ncc[nH]3)Cc3nccn3C)ccc2n1 [Compound No. 30] | 92 | 46 | 0/3 |
| CCCN(CCC)CCCCN(Cc1ccc(CN(Cc2ncc[nH]2)Cc2nccn2C)cc1)c1ccccc1 [Compound No. 24, N-(4-{[(1H-imidazol-2-ylmethyl)-(1-methyl-1H-imidazol-2-ylmethyl)-amino]-methyl}-benzyl)-N-phenyl-N′,N′-dipropyl-butane-1,4-diamine] | 95 | 50.1 | 0/3 |
| CCCN(CCC)CCCCN(Cc1ccc(CN(Cc2ncc[nH]2)Cc2nccn2C)cc1)Cc1nnn[nH]1 [Compound No. 110, N-(4-{[(1H-imidazol-2-ylmethyl)-(1-methyl-1H-imidazol-2-ylmethyl)-amino]-methyl}-benzyl)-N′,N′-dipropyl-N-(1H-tetrazol-5-ylmethyl)-butane-1,4-diamine] | 4 | 71.4 | – |
| CCCN(CCC)CCOCCN(C)Cc1ccc(CN(Cc2ncc[nH]2)Cc2nccn2C)cc1 [Compound No. 109, (2-{2-[(4-{[(1H-imidazol-2-ylmethyl)-(1-methyl-1H-imidazol-2-ylmethyl)-amino]-methyl}-benzyl)-methyl-amino]-ethoxy}-ethyl)-dipropyl-amine] | 4 | 94.3 | – |
| CCCN(CCC)CCCCN(C)C(C(=O)OCC)c1ccc(CN(Cc2ncc[nH]2)Cc2nccn2C)cc1 (stereo not shown) [Compound No. 119, [(4-dipropylamino-butyl)-methyl-amino]-(4-{[(1H-imidazol-2-ylmethyl)-(1-methyl-1H-imidazol-2-ylmethyl)-amino]-methyl}-phenyl)-acetic acid ethyl ester] | 4 | 72.7 | – |
| CCCN(CCC)Cc1ccc(-c2nc3ccc(CN(Cc4ncc[nH]4)Cc4nccn4C)cc3n2C)cc1 [Compound No. 29, [4-(6-{[(1H-imidazol-2-ylmethyl)-(1-methyl-1H-imidazol-2-ylmethyl)-amino]-methyl}-1-methyl-1H-benzimidazol-2-yl)-benzyl]-dipropyl-amine] | 61 | 71.2 | 0/3 |
| CCCN(CCC)Cc1ccc(NC(=O)c2ccc(CN(Cc3ncc(C)cc3C)Cc3nccn3C)cc2)cc1 [Compound No. 15, 4-{[(3,5-dimethyl-pyridin-2-ylmethyl)-(1-methyl-1H-imidazol-2-ylmethyl)-amino]-methyl}-N-(4-dipropylaminomethyl-phenyl)-benzamide] | 6 | 74 | 0/3 |
| CCCN(CCC)CCCCN(CCC(=O)OC)Cc1ccc(CN(Cc2ncc[nH]2)Cc2nccn2C)cc1 [Compound No. 34, 3-[(4-dipropylamino-butyl)-(4-{[(1H-imidazol-2-ylmethyl)-(1-methyl-1H-imidazol-2-ylmethyl)-amino]-methyl}-benzyl)-amino]-propionic acid methyl ester] | 3 | 85.5 | 0/3 |
| CCCN(CCC)CCCCN(CC(=O)OC)Cc1ccc(CN(Cc2ncc[nH]2)Cc2ncc[nH]2)cc1 [Compound No. 87, [(4-[[bis-(1H-imidazol-2-ylmethyl)-amino]-methyl]-benzyl)-(4-dipropylamino-butyl)-amino]-acetic acid methyl ester] | 3 | 82.1 | 0/3 |
| CCCN(CCC)CCCCc1nc2ccc(CN(Cc3ncc[nH]3)Cc3ncc[nH]3)cc2n1CCC [Compound No. 3, [4-(6-{[bis-(1H-imidazol-2-ylmethyl)-amino]-methyl}-1-propyl-1H-benzimidazol-2-yl)-butyl]-dipropyl-amine] | 3 | 71.4 | 0/3 |
| CCCN(CCC)CCCCN(C)Cc1ccc(CNCc2nccn2Cc2nccn2C)cc1 [Compound No. 10] | 9 | 20.4 | 0/3 |
| CCCN(CCC)CCCCN(CCO)Cc1ccc(CN(Cc2ncc[nH]2)Cc2nccn2C)cc1 [Compound No. 1, 2-[(4-dipropylamino-butyl)-(4-{[(1H-imidazol-2-ylmethyl)-(1-methyl-1H-imidazol-2-ylmethyl)-amino]-methyl}-benzyl)-amino]-ethanol] | 3 | 87.9 | 0/3 |
| CCCN(CCC)CCCC1NC(=O)c2ccc(CN(Cc3ncc[nH]3)Cc3nccn3C)cc2NC1=O (stereo not shown) [Compound No. 14, 3-(3-dipropylaminopropyl)-8-{[(1H-imidazol-2-ylmethyl)-(1-methyl-1H-imidazol-2-ylmethyl)-amino]-methyl}-3,4-dihydro-1H-benzo[e][1,4]diazepin-2,5-dione] | 6 | 32.9 | 0/3 |
| CCCN(CCC)CCCCN(Cc1ccc(CN(Cc2ncc[nH]2)Cc2nccn2C)cc1)S(=O)(=O)c1ccc(C)cc1 [Compound No. 22, N-(4-dipropylamino-butyl)-N-(4-{[(1H-imidazol-2-ylmethyl)-(1-methyl-1H-imidazol-2-ylmethyl)-amino]-methyl}-benzyl)-4-methyl-benzenesulfonamide] | 106 | 84.3 | 0/3 |
| CCCN(CCC)CCCCNC(=S)Nc1ccc(CN(Cc2ncc[nH]2)Cc2nccn2C)cc1 [Compound No. 35, 1-(4-dipropylamino-butyl)-3-(4-{[(1H-imidazol-2-ylmethyl)-(1-methyl-1H-imidazol-2-ylmethyl)-amino]-methyl}-phenyl)-thiourea] | 7 | 86.3 | 0/3 |
| CCCN(CCC)CCCCc1nc2cc(CN(Cc3ncc[nH]3)Cc3nccn3C)ccc2n1CCC [Compound No. 5, [4-(5-{[(1H-imidazol-2-ylmethyl)-(1-methyl-1H-imidazol-2-ylmethyl)-amino]-methyl}-1-propyl-1H-benzimidazol-2-yl)-butyl]-dipropyl-amine] | 9 | 67 | 0/3 |
| CCCN(CCC)CCCCN(C)C(C(=O)O)c1ccc(CN(Cc2ncc[nH]2)Cc2nccn2C)cc1 (stereo not shown) [Compound No. 120, [(4-dipropylamino-butyl)-methyl-amino]-(4-{[(1H-imidazol-2-ylmethyl)-(1-methyl-1H-imidazol-2-ylmethyl)-amino]-methyl}-phenyl)-acetic acid] | 4 | 79.7 | – |
